Data taken from patent US10064858B2, “Methods and compositions for treating bacterial infections with iron chelators” (THE UNITED STATES OF AMERICA, AS REPRESENTED BY THE …, priority 2011, dated 2018).
Like-named read-outs stand apart in the source and are kept apart here.

Assays:
Format in all cases: cell-based
Acinetobacter baumannii [1] = test: MIC, CLSI microdilution (Tables 1 and 6)
Experimental: (§1) The minimal inhibitory concentration (MIC) of non-toxic iron chelators was determined against standard strains of MDR bacteria and clinical isolates according to the guidelines of the Clinical and Laboratory Standards Institute (CLSI).
(§2) Individual MICs were determined following the microdilution method recommended by CLSI in cationic-adjusted Mueller-Hinton Broth (CAMHB), or M9 media. […] Tests were performed in triplicate. MIC of iron chelators were determined for noscomial ESKAPE pathogens.
(§3) MIC were determined in CAMHB media as described above in Example 8.

E. coli [2] = test: MIC, CLSI microdilution (Tables 1 and 6); conditions: Escherichia coli, Table 1, read-out: MIC of Iron Chelators
Experimental: as §1, §2, §3

K. pneumonia [3] = test: MIC, CLSI microdilution (Tables 1 and 6); conditions: Klebsiella pneumoniae, Table 1, read-out: MIC of Iron Chelators
Experimental: as §1, §2, §3

P. aeruginosa [4] = test: MIC, CLSI microdilution (Tables 1 and 6); conditions: Pseudomonas aeruginosa, Table 1, read-out: MIC of Iron Chelators
Experimental: as §1, §2, §3

S. aureus = test: MIC, CLSI microdilution (Tables 1 and 6); conditions: Staphylococcus aureus, Table 1, read-out: MIC of Iron Chelators
Experimental: as §1, §2, §3

Acinetobacter baumannii [5] = test: MIC in RPMI1640 media (Table 2)
Experimental: (§4) […] […] Tests were performed in triplicate. MIC of iron chelators were determined for noscomial ESKAPE pathogens.
(§5) This media is closer to the iron levels in the human body. MICs are in ug/mL.

E. coli [6] = test: MIC in RPMI1640 media (Table 2)
Experimental: as §4, §5

K. pneumonia [7] = test: MIC in RPMI1640 media (Table 2); conditions: Klebsiella pneumoniae
Experimental: as §4, §5

P. aeruginosa [8] = test: MIC in RPMI1640 media (Table 2); conditions: Pseudomonas aeruginosa
Experimental: as §4, §5

[9] = tested on: clinical isolates of A. baumannii; test: MIC for clinical isolates in CAMHB media (Table 3); conditions: Acinetobacter baumannii
Experimental: as §2

E. coli EC35218 = test: Time-kill assay in CAMHB
Experimental: Reductions in colony forming units (CFU)/mL were determined over time (time-kill assay) after exposure to VK28 and deferiprone (DFP), the two iron chelators that performed best in MIC assays when compared to controls. To better represent the iron content found in the human body, MIC and time-kill assays were also determined in minimal media and tissue culture media. Time-Kill assays were performed as previously described in G. P. Neupane et al., “In vitro time-kill activities of ciprofloxacin alone and in combination with the iron chelator deferasirox against Vibrio vulnificus,” European Journal of Clinical Microbiology and Infectious Diseases, 407-410 (2010); and R. L. White, et al., “Comparison of Three Different In Vitro Methods of Detecting synergy: Time-Kill, Checkerboard, and E test,” Journal of Antimicrobial Agents and Chemotherapy, 1914-1918 (1996). Initial inocula, for example 1×10^6 CFU/mL or 1×10^7 CFU/mL were challenged with iron chelator with and/or without an antibiotic. Cells were allowed to grow in CAMHB at 37° C. for 24 hours. Time-kill results were analyzed by determining the change in log 10 numbers of CFU/ml at 0, 6, and 24 h, compared to counts at 0 h. Antimicrobials were considered bactericidal at the lowest concentration that reduced the size of the original inoculum by >3 log 10 CFU/ml (99.9%) over each of the time periods and were considered bacteriostatic if the inoculum's size was reduced by 0 to <3 log 10 CFU/ml.
In this example, time-kill assays were performed as described in Example 9 against different multi-drug resistant bacteria, namely E. coli and MRSA.
In this example, time-kill assays were performed as described in Example 9 using ApoL1 as the iron chelator against two different E. coli strains. […] Time-kill results were analyzed by determining the change in log 10 numbers of CFU/mL at 6 and 24 hours.
In this example, time-kill assays were performed as described in Example 9 using Apo6619 as the iron chelator in combination with Rifampin against E. coli 35718. […] Time-kill results were analyzed by determining the change in log 10 numbers of CFU/mL at 0, 5 and 24 hours.

[10] = ATCC17978, ATCC 17978, Table 1, read-out: MIC of Iron Chelators
[11] = ATCC19606, ATCC 19606, Table 1, read-out: MIC of Iron Chelators
[12] = ATCC43888, ATCC 43888 (0157:H7)
[13] = ATCC17978, ATCC 17978, read-out: MIC of Iron Chelators
[14] = ATCC19606, ATCC 19606, read-out: MIC of Iron Chelators
[15] = Escherichia coli, 35718, read-out: MIC of Iron Chelators
[16] = Escherichia coli, ATCC43888, ATCC 43888 (0157:H7), read-out: MIC of Iron Chelators
[17] = ATCC700603, ATCC 700603, read-out: MIC of Iron Chelators
[18] = BAA2146, BAA-2146, read-out: MIC of Iron Chelators
[19] = ATCC27853, ATCC 27853, read-out: MIC of Iron Chelators
[20] = PAO1, read-out: MIC of Iron Chelators
[21] = AB967, read-out: MIC of Iron Chelators
[22] = AB2828, read-out: MIC of Iron Chelators
[23] = AB3340, read-out: MIC of Iron Chelators
[24] = AB3560, read-out: MIC of Iron Chelators
[25] = AB3638, read-out: MIC of Iron Chelators
[26] = AB3785, read-out: MIC of Iron Chelators
[27] = AB3806, read-out: MIC of Iron Chelators
[28] = AB3917, read-out: MIC of Iron Chelators
[29] = AB3927, read-out: MIC of Iron Chelators
[30] = AB4025, read-out: MIC of Iron Chelators
[31] = AB4026, read-out: MIC of Iron Chelators
[32] = AB4027, read-out: MIC of Iron Chelators
[33] = AB4052, read-out: MIC of Iron Chelators
[34] = AB4269, read-out: MIC of Iron Chelators
[35] = AB4448, read-out: MIC of Iron Chelators
[36] = AB4456, read-out: MIC of Iron Chelators
[37] = AB4490, read-out: MIC of Iron Chelators
[38] = AB4498, read-out: MIC of Iron Chelators
[39] = AB4795, read-out: MIC of Iron Chelators
[40] = AB4857, read-out: MIC of Iron Chelators
[41] = AB4878, read-out: MIC of Iron Chelators
[42] = AB4932, read-out: MIC of Iron Chelators
[43] = AB4957, read-out: MIC of Iron Chelators
[44] = AB4991, read-out: MIC of Iron Chelators
[45] = AB5001, read-out: MIC of Iron Chelators
[46] = AB5075, read-out: MIC of Iron Chelators
[47] = AB5197, read-out: MIC of Iron Chelators
[48] = AB5256, read-out: MIC of Iron Chelators
[49] = AB5674, read-out: MIC of Iron Chelators
[50] = AB5711, read-out: MIC of Iron Chelators

For `OCCN1CCN(Cc2ccc(O)c3ncccc23)CC1` [VK28, 5-(4-(2-hydroxyethyl)piperazin-1-ylmethyl)-8-hydroxyquinoline], the MIC (Acinetobacter baumannii [1]; [10]) was 125 µg/mL, the MIC (Acinetobacter baumannii [1]; [11]) was 125 µg/mL and the MIC (E. coli [2]; ATCC35218, ATCC 35218) was > 500 µg/mL. The MIC (E. coli [2]; [12]) was > 500 µg/mL, the MIC (K. pneumonia [3]; ATCC700603, ATCC 700603) was > 500 µg/mL and the MIC (K. pneumonia [3]; BAA2146, BAA-2146) was > 500 µg/mL. The MIC (P. aeruginosa [4]; ATCC27853, ATCC 27853) was > 500 µg/mL, the MIC (P. aeruginosa [4]; PAO1) was > 500 µg/mL and the MIC (S. aureus; ATCC25923, ATCC 25923) was 250 µg/mL. The MIC (S. aureus; ATCC 43300 (MRSA)) was 250 µg/mL, the MIC (Acinetobacter baumannii [5]; [13]) was 32 µg/mL and the MIC (Acinetobacter baumannii [5]; [14]) was 8 µg/mL. The MIC (E. coli [6]; [15]) was 32 µg/mL, the MIC (E. coli [6]; [16]) was 8 µg/mL and the MIC (K. pneumonia [7]; [17]) was 16 µg/mL. It also gave an MIC (K. pneumonia [7]; [18]) of 16 µg/mL, an MIC (P. aeruginosa [8]; [19]) of 16 µg/mL and an MIC (P. aeruginosa [8]; [20]) of 16 µg/mL. It also gave an MIC [9, 21] of 250 µg/mL, an MIC [9, 22] of 250 µg/mL and an MIC [9, 23] of 250 µg/mL. For the same compound, the MIC [9, 24] was 250 µg/mL, the MIC [9, 25] was 250 µg/mL and the MIC [9, 26] was 250 µg/mL. The MIC [9, 27] was 500 µg/mL, the MIC [9, 28] was 500 µg/mL and the MIC [9, 29] was 250 µg/mL. It also gave an MIC [9, 30] of 250 µg/mL, an MIC [9, 31] of 250 µg/mL and an MIC [9, 32] of 250 µg/mL. For the same compound, the MIC [9, 33] was 500 µg/mL, the MIC [9, 34] was 250 µg/mL and the MIC [9, 35] was 250 µg/mL. It also gave an MIC [9, 36] of 250 µg/mL, an MIC [9, 37] of 250 µg/mL and an MIC [9, 38] of 500 µg/mL. It also gave an MIC [9, 39] of 250 µg/mL, an MIC [9, 40] of 500 µg/mL and an MIC [9, 41] of 500 µg/mL. It also gave an MIC [9, 42] of 500 µg/mL, an MIC [9, 43] of 500 µg/mL and an MIC [9, 44] of 250 µg/mL. It also gave an MIC [9, 45] of 250 µg/mL, an MIC [9, 46] of 250 µg/mL and an MIC [9, 47] of 250 µg/mL. For the same compound, the MIC [9, 48] was 250 µg/mL, the MIC [9, 49] was 250 µg/mL and the MIC [9, 50] was 250 µg/mL. The time-kill effect (E. coli EC35218; 1×MIC and 2×MIC VK28, CAMHB) was “bacteriostatic (considered bacteriostatic if the inoculum's size was reduced by 0 to <3 log 10 CFU/ml)”.
Work on `CNC(=O)c1c(O)c(=O)cc(C)n1C1CC1` [Apo6619, 1-cyclopropyl-3-hydroxy-6-methyl-4-oxo-1,4-dihydro-pyridine-2-carboxylic acid methylamide] yielded an MIC (Acinetobacter baumannii [1]; [10]) of 250 µg/mL, an MIC (Acinetobacter baumannii [1]; [11]) of 250 µg/mL and an MIC (E. coli [2]; ATCC35218, ATCC 35218) of 250 µg/mL. For the same compound, the MIC (E. coli [2]; [12]) was 250 µg/mL, the MIC (K. pneumonia [3]; ATCC700603, ATCC 700603) was > 500 µg/mL and the MIC (K. pneumonia [3]; BAA2146, BAA-2146) was > 500 µg/mL. For the same compound, the MIC (P. aeruginosa [4]; ATCC27853, ATCC 27853) was > 500 µg/mL, the MIC (P. aeruginosa [4]; PAO1) was > 500 µg/mL and the MIC (S. aureus; ATCC25923, ATCC 25923) was > 500 µg/mL. The MIC (S. aureus; ATCC 43300 (MRSA)) was > 500 µg/mL, the MIC (Acinetobacter baumannii [5]; [13]) was 64 µg/mL and the MIC (Acinetobacter baumannii [5]; [14]) was 125 µg/mL. It also gave an MIC (E. coli [6]; [15]) of 250 µg/mL, an MIC (E. coli [6]; [16]) of 250 µg/mL and an MIC (K. pneumonia [7]; [17]) of 500 µg/mL. For the same compound, the MIC (K. pneumonia [7]; [18]) was 500 µg/mL, the MIC (P. aeruginosa [8]; [19]) was > 500 µg/mL and the MIC (P. aeruginosa [8]; [20]) was 500 µg/mL. It also gave an MIC [9, 21] of 250 µg/mL, an MIC [9, 22] of 500 µg/mL and an MIC [9, 23] of 250 µg/mL. It also gave an MIC [9, 24] of 500 µg/mL, an MIC [9, 25] of 500 µg/mL and an MIC [9, 26] of 500 µg/mL. The MIC [9, 27] was 1000 µg/mL, the MIC [9, 28] was 500 µg/mL and the MIC [9, 29] was 250 µg/mL. The MIC [9, 30] was 500 µg/mL, the MIC [9, 31] was 500 µg/mL and the MIC [9, 32] was 500 µg/mL. The MIC [9, 33] was 500 µg/mL, the MIC [9, 34] was 250 µg/mL and the MIC [9, 35] was 500 µg/mL. For the same compound, the MIC [9, 36] was 500 µg/mL, the MIC [9, 37] was 500 µg/mL and the MIC [9, 38] was 500 µg/mL. For the same compound, the MIC [9, 39] was 500 µg/mL, the MIC [9, 40] was 500 µg/mL and the MIC [9, 41] was 500 µg/mL. It also gave an MIC [9, 42] of 500 µg/mL, an MIC [9, 43] of 250 µg/mL and an MIC [9, 44] of 500 µg/mL. The MIC [9, 45] was 250 µg/mL, the MIC [9, 46] was 250 µg/mL and the MIC [9, 47] was 500 µg/mL. It also gave an MIC [9, 48] of 250 µg/mL, an MIC [9, 49] of 250 µg/mL and an MIC [9, 50] of 250 µg/mL. For the same compound, the time kill curves (E. coli EC35218; E. coli 35718, 1.5×MIC Apo6619 in combination with 0.75×MIC Rifampin, 0, 5 and 24 hours) was “combinational effect”.
